# Reference: patent US20240175876A1, “PERIPLASMIC LIGAND TRAPPING SYSTEM” (UNIVERSITY OF MIAMI, priority 2022, published 2024)
# Target: T1, Angiotensin II Receptor Type I (AGTR1) (Homo sapiens, UniProt P30556)
# T1 construct: expressed in transfected cells; host or cells: Saccharomyces cerevisiae strain DI DCyFIR P1 I (humanized Gαi)
# T1 sequence (P30556 1-359): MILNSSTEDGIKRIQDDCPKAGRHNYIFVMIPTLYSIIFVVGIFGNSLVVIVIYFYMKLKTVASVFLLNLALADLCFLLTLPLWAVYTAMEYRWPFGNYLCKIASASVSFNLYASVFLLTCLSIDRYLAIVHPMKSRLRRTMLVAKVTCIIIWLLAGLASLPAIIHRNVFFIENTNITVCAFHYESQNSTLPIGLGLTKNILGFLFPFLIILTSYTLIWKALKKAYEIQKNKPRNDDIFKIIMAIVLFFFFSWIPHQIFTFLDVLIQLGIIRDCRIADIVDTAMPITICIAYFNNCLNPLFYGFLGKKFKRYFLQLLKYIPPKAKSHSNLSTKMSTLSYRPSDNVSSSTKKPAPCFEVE
# Assay: AGTR1 modulation via intracellular nanobodies, galactose-induced AGT-II, mTq2 reporter in yeast
# Assay type: cell-based
# Conditions: galactose-induced secreted ligand, Gαi strain; FIG. 5B
substance,measurement,value
angiotensin II [AGT-II],AGTR1 activation by inducible expression of ligand,successfully resulted in AGTR1 activation
